Measurements reported in ChEMBL document CHEMBL1136068 (Bioorg Med Chem Lett, 2003).
Activity calls are given as the source filed them. No cut-off for these calls is given here.

How the values were obtained:
[1] = target: T1, Progesterone receptor (Homo sapiens) (UniProt P06401); assay: Agonist efficacy towards human progesterone receptor (hPR) using the cotransfection assay in CV-1 cells; format: functional, cell-based
T1 sequence (whole entry): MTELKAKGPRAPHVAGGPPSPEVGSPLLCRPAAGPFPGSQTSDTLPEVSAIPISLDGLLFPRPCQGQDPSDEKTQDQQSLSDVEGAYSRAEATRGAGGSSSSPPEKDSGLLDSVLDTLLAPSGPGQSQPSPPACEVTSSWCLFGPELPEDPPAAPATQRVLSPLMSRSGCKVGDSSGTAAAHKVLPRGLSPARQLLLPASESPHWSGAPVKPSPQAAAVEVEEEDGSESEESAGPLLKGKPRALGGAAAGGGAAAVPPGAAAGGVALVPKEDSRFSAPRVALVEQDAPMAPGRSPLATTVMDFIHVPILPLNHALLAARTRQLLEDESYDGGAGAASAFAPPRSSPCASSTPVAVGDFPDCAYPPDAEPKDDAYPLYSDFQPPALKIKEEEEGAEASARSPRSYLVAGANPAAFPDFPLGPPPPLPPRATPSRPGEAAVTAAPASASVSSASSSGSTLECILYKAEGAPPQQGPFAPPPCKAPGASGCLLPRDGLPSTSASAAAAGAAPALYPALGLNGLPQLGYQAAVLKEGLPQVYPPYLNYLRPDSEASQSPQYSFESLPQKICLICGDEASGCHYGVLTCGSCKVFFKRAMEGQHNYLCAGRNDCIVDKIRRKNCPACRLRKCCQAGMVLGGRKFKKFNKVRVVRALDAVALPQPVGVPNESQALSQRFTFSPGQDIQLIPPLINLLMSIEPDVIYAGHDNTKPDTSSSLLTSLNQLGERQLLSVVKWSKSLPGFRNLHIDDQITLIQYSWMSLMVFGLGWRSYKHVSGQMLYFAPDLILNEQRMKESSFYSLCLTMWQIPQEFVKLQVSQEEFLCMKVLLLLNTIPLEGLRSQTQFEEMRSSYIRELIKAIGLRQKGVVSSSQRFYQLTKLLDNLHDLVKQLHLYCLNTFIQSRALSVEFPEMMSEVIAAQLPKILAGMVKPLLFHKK

[2] = target: T1, Progesterone receptor (Homo sapiens); assay: Antagonistic efficacy towards human progesterone receptor (hPR) using the cotransfection assay in CV-1 cells; Not active; format: functional, cell-based
Progesterone receptor [3] = target: T2, Progesterone receptor (Homo sapiens, UniProt P06401); assay: Effective concentration for agonist activity towards human progesterone receptor (hPR) using the cotransfection assay in CV-1 cells; format: functional, cell-based
T2 sequence (P06401 whole entry): T1 sequence (whole entry)

Progesterone receptor [4] = target: T2, Progesterone receptor; assay: Inhibitory concentration for antagonistic activity towards human progesterone receptor (hPR) using the cotransfection assay in CV-1 cells; Not active; format: functional, cell-based
Progesterone receptor [5] = target: T2, Progesterone receptor; assay: Binding affinity to human progesterone receptor
[6] = target: T3, Mineralocorticoid receptor (Homo sapiens, UniProt P08235); assay: Antagonist activity at mineralocorticoid receptor (hMR); not active; format: functional
T3 sequence (P08235 whole entry): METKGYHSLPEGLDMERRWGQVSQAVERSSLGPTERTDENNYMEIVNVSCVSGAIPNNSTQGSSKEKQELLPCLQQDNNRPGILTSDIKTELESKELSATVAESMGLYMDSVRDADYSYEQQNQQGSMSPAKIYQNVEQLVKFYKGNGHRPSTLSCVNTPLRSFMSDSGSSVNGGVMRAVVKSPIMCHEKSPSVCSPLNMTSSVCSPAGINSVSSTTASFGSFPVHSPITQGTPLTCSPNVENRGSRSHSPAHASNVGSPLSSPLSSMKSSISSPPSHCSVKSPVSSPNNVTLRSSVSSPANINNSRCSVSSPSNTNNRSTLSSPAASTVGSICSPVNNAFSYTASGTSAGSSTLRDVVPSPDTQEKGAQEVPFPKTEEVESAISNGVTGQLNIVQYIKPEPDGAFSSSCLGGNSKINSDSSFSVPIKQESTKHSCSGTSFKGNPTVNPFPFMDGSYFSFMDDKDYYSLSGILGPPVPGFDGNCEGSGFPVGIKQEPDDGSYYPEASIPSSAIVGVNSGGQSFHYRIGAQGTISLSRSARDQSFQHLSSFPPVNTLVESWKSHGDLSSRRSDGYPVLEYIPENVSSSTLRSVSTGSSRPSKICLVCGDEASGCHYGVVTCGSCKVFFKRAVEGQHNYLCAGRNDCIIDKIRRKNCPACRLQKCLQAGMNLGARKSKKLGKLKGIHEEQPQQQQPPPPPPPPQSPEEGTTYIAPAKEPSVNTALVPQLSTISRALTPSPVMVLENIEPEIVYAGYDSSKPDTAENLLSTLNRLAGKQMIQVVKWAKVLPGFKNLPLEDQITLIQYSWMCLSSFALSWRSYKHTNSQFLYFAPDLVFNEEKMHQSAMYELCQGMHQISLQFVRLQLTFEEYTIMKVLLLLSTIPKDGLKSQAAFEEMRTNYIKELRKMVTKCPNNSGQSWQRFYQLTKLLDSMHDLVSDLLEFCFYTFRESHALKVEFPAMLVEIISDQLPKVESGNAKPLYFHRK

[7] = target: T4, Mineralocorticoid receptor (Homo sapiens) (UniProt P08235); assay: Antagonist efficacy at mineralocorticoid receptor (hMR); not active; format: functional
T4 sequence (whole entry): T3 sequence (P08235 whole entry)

Glucocorticoid receptor = target: T5, Glucocorticoid receptor (Homo sapiens, UniProt P04150); assay: Antagonist activity at glucocorticoid (hGR) receptor; format: functional
T5 sequence (P04150 whole entry): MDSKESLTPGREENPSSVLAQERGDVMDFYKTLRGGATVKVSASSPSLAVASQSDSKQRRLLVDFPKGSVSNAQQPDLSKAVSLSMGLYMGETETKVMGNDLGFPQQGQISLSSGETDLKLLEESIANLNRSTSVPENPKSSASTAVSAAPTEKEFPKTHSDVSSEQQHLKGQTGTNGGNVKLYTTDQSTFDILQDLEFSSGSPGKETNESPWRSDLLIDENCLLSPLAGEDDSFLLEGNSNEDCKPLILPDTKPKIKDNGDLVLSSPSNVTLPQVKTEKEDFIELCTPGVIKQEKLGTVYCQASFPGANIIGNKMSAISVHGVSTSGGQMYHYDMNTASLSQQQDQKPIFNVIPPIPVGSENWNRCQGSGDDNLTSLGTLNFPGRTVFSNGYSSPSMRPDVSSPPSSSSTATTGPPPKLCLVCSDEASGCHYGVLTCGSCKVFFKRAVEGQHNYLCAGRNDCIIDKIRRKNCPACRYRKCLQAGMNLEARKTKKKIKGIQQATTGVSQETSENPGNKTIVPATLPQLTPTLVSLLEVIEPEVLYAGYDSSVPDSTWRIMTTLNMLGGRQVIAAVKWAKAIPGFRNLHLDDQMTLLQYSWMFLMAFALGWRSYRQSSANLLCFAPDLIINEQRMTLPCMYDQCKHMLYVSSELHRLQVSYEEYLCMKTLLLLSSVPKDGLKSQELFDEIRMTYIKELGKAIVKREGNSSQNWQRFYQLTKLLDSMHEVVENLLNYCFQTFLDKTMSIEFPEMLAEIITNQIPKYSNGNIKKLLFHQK

Estrogen receptor [8] = target: T6, Estrogen receptor (Homo sapiens, UniProt Q92731+P03372); assay: Inhibitory activity against human Estrogen receptor; not active; format: protein assay
Estrogen receptor [9] = target: T6, Estrogen receptor; assay: Antagonist efficacy with estrogen (hER) receptor; not active; format: functional

Row | Efficacy [1] [%] | Efficacy [2] | EC50 (Progesterone receptor [3]) [nM] | IC50 (Progesterone receptor [4]) | Ki (Progesterone receptor [5]) [nM] | IC50 [6] [nM] | Efficacy [7] [%] | IC50 (Glucocorticoid receptor) [nM] | IC50 (Estrogen receptor [8]) [nM] | Efficacy (Estrogen receptor [9]) [%] | SMILES
1 | 112 | inactive | 11 | Not Active | 8 | – | – | – | – | – | CC/C(C)=C1\Oc2ccc(F)cc2-c2ccc3c(c21)C(C)=CC(C)(C)N3
2 | 172 | inactive | 1.7 | Not Active | – | > 1000 | < 20 | 177 | > 1000 | < 20 | CC(C)=C/C=C1\Oc2ccc(F)cc2-c2ccc3c(c21)C(C)=CC(C)(C)N3
3 | 80 | inactive | 0.15 | Not Active | 0.34 | > 1000 | < 20 | 10 | > 1000 | < 20 | CC(=O)C[C@]1(C(C)=O)CC[C@H]2C3C[C@H](C)C4=CC(=O)CC[C@]4(C)[C@H]3CC[C@@]21C (stereo partly drawn)

Row | SMILES | Efficacy [1] [%] | Efficacy [2] | EC50 (Progesterone receptor [3]) [nM] | IC50 (Progesterone receptor [4]) | Ki (Progesterone receptor [5]) [nM] | IC50 [6] [nM] | Efficacy [7] [%] | IC50 (Glucocorticoid receptor) [nM] | IC50 (Estrogen receptor [8]) [nM] | Efficacy (Estrogen receptor [9]) [%]
4 | CC1=CC(C)(C)Nc2ccc3c(c21)/C(=C/Br)Oc1ccc(F)cc1-3 | 135 | inactive | 2.2 | Not Active | 2.1 | > 1000 | < 20 | – | > 1000 | < 20
